{"source": "patent US10709704B2", "about": "“Treating neural disease with tyrosine kinase inhibitors” (GEORGETOWN UNIVERSITY, priority 2012, dated 2020)", "format_in_all_cases": "in vivo, mouse", "key": {"[1]": {"system": "SN Tyrosine hydroxylase (TH) neurons", "assay": "TH neuron stereology and electron microscopy of SN, lentiviral α-Synuclein mice", "procedure": "Animals were deeply anesthetized with a mixture of Xylazine and Ketamine (1:8), washed with 1× saline for 1 min and then perfused with 4% paraformaldehyde (PFA) for 15-20 min. Brains were quickly dissected out and immediately stored in 4% PFA for 24 h at […], and then transferred to 30% sucrose at […] for 48 h. Tyrosine Hydroxylase (TH) was probed (1:100) with rabbit polyclonal (AB152) antibody (Millipore) and human α-Synuclein was probed (1:100) with mouse monoclonal antibodies (Thermo Scientific) and DAB counterstained.\nThese were applied by a blinded investigator using unbiased stereology analysis (Stereologer, Systems Planning and Analysis, Chester, Md.) to determine the total positive cell counts in 20 cortical fields on at least 10 brain sections (˜400 positive cells per animal) from each animal.\nBrain tissues are fixed in (1:4, v:v) 4% PFA-picric acid solution and […] overnight, then washed 3× in 0.1 M cacodylate buffer and osmicated in 1% osmium tetroxide/1.5% potassium ferrocyanide for 3 h, followed by another 3× wash in distilled water. […] Blocks are sectioned on a Leica ultracut microtome at 95 nm, picked up onto […] formvar-coated copper grids and analyzed using a Philips Technai Spirit transmission EM. […]"}, "Tg-APP mice": {"system": "Tg-APP mice", "assay": "Morris water maze, Tg-APP mice", "procedure": "All animals were pre-trained (trials) to swim for 90 seconds in a water maze containing a platform submerged in water (invisible) for 4 consecutive days once a day. The pretraining trials “teach” the swimming animals that to “escape”, they must find the hidden platform, and stay on it. The water maze “test” was performed on day 5, (40), when the platform was removed and mice have to swim and find it, thus assessing acquisition and retention. All parameters, including distance travelled to reach platform, speed to get to the platform, latency or time spent on platform, and platform entry were digitally recorded on a computer and analyzed by a blind investigator.\nThese experiments were repeated in 1 year old Tg-APP mice and age-matched control (C57BL/6)."}, "[2]": {"system": "autophagic vacuoles and lysosomes", "assay": "Subcellular fractionation and ELISA, lentiviral Aβ1-42 mice", "procedure": "Histograms show Aβ1-42 in subcellular fractions, including autophagic vacuole-10 (AV-10; phagophores+autophagosomes), AV-20 (autophagosomes) and lysosomes. […] Brain tissues were fractionated to isolate AVs and human specific ELISA was performed to determine protein contents. […] N=5 animals per treatment.\nBrain tissues were fractionated to isolate AVs and human specific ELISA was performed to determine protein contents.\n0.5 g of Frozen human or animal brains were homogenized at low speed (Cole-Palmer homogenizer, LabGen 7, 115 Vac) in 1×STEN buffer and centrifuged at 1,000 g for 10 minutes to isolate the supernatant from the pellet. The pellet was re-suspended in 1×STEN buffer and centrifuged once to increase the recovery of lysosomes. The pooled supernatants were then centrifuged at 100,000 rpm for 1 hour at 4° C. to extract the pellet containing autophagic vacuoles (AVs) and lysosomes. The pellet was then re-suspended in 10 ml (0.33 g/ml) 50% Metrizamide and 10 ml in cellulose nitrate tubes. A discontinuous Metrizamide gradient was constructed in layers from bottom to top as follows: 6 ml of pellet suspension, 10 ml of 26%; 5 ml of 24%; 5 ml of 20%; and 5 ml of 10% Metrizamide (Marzella et al., 1982). After centrifugation at 10,000 rpm for 1 hour at 4° C., the fraction floating on the 10% layer (Lysosome) and the fractions banding at the 24%/20% (AV 20) and the 20%/10% (AV10) Metrizamide inter-phases were collected by a syringe and examined.\nAnimal brains were homogenized at low speed (Cole-Palmer homogenizer, LabGen 7, 115 Vac) in 1×STEN buffer and centrifuged at 1,000 g for 10 minutes to isolate the supernatant from the pellet. The pellet was re-suspended in 1×STEN buffer and centrifuged once to increase the recovery of lysosomes. The pooled supernatants were then centrifuged at 100.000 rpm for 1 hour at […] to extract the pellet containing autophagic vacuoles (AVs) and lysosomes. The pellet was then re-suspended in 10 ml (0.33 g/ml) 50% Metrizamide and 10 ml in cellulose nitrate tubes. […]"}, "[3]": {"system": "Aβ1-42 plaques and intracellular Aβ1-42", "assay": "Plaque and intracellular Aβ1-42 staining, lentiviral Aβ1-42 parkin−/− mice", "procedure": "Immunohistochemistry was performed on 20 micron-thick 4% paraformaldehyde (PFA) fixed cortical brain sections. Aβ1-42 was probed (1:200) with rabbit polyclonal specific anti-Aβ1-42 antibody (Zymed) that recognizes a.a.1-42, and (1:200) mouse monoclonal antibody (4G8) that recognizes amino acid 17-24 (Covance) and counterstained with DAPI. Parkin was immunoprobed (1:200) with mouse anti-parkin (PRK8) antibody that recognizes amino acid 399-465 (Signet Labs, Dedham, Mass.) and rabbit polyclonal (1:200) anti-parkin (AB5112) antibody that recognizes amino acid 305-622 (Millipore) and counterstained with DAPI. Mouse monoclonal (6E10) antibody (1:100) with DAB were used (Covance) and thioflavin-S was performed according to manufacturer's instructions (Sigma).\nStereological methods were applied by a blinded investigator using unbiased stereology analysis (Stereologer, Systems Planning and Analysis, Chester, Md.) as described in (20,36)."}, "transgenic A53T mice": {"system": "transgenic A53T mice", "assay": "Rotarod, A53T mice", "description": "Mice were placed on an accelerating rotarod (Columbus Instruments) equipped with individual timers for each mouse. […] All values were converted to % control."}, "[4]": {"details": "lentiviral Aβ1-42 mice, IP 10 mg/kg Nilotinib or 5 mg/Kg Bosutinib daily 3 weeks"}}}
{"compound": "Cc1cn(-c2cc(NC(=O)c3ccc(C)c(Nc4nccc(-c5cccnc5)n4)c3)cc(C(F)(F)F)c2)cn1", "note": "[Nilotinib]", "values": [{"measurement": "TH+ neurons (by stereology)", "setting": "[1]; lentiviral α-Synuclein mice + Nilotinib", "result": "82 % of LacZ level"}, {"measurement": "autophagic vacuoles in SN neurons (transmission electron microscopy)", "setting": "[1]; lentiviral α-Synuclein mice, Nilotinib treatment", "result": "appearance of larger AVs"}, {"measurement": "time spent in SE", "setting": "Tg-APP mice; 1 year old Tg-APP mice, 10 mg/kg daily for 3 weeks", "result": "reversed time spent in SE back to control level"}, {"measurement": "distance traveled above control levels", "setting": "Tg-APP mice; Nilotinib treated Tg-APP mice", "result": 30, "unit": "%"}, {"measurement": "entries into SE (platform entry) higher than control", "setting": "Tg-APP mice; Tg-APP+Nilotinib", "result": 30, "unit": "%"}, {"measurement": "autophagic clearance of Aβ1-42 (deposition in AV-20 and lysosome)", "setting": "[2]; [4]", "result": "enhances autophagic clearance"}, {"measurement": "autophagic clearance of p-Tau ser 396 (deposition in AV-20 and lysosome)", "setting": "[2]; [4]", "result": "enhances autophagic clearance"}, {"measurement": "autophagic clearance of Aβ1-42 (deposition in AV-20 and lysosomes)", "setting": "[2]; wild type or Tau−/− mice, lentiviral Aβ1-42, 10 mg/kg Nilotinib or 5 mg/Kg Bosutinib daily 3 weeks", "result": "enhances autophagic clearance"}, {"measurement": "plaque size", "setting": "[3]; Aβ1-42 parkin−/− mice + Nilotinib (DMSO 85 μm)", "result": 79, "unit": "μm"}, {"measurement": "Aβ1-42 positive cells (stereological counting)", "setting": "[3]; Aβ1-42 parkin−/− mice + Nilotinib (DMSO N=14566)", "result": 13250}, {"measurement": "plaque load", "setting": "[3]; Aβ1-42 parkin−/− mice, Nilotinib", "result": "did not reduce plaque load"}, {"measurement": "increase in rotarod motor performance above control levels", "setting": "transgenic A53T mice; 6-8 months old A53T mice, Nilotinib", "result": 45, "unit": "%"}, {"measurement": "motor performance (rotarod)", "setting": "transgenic A53T mice; A53T mice, 10 mg/kg Nilotinib or 5 mg/Kg Bosutinib once daily for 3 weeks", "result": "increased"}]}
